In ChEMBL document CHEMBL3885861, “Open TG-GATES”:

Species on record: Rattus norvegicus
Assay: Open TG-GATES - Regimen: Daily Repeat
Assay type: toxicity, organism-based, Sprague-Dawley
Design: regimen Daily Repeat, gender Male, age 6 weeks
Settings: in vivo, po, route gavage; for APTT / Bas / Eos / Fbg / Hb / Ht / Lym / MCH / MCHC / MCV / Mono / Neu / PT / Plat / RBC / Ret / WBC: tissue Blood; for KIDNEY_L / KIDNEY_R / KIDNEY_TOTAL: tissue Kidney; for LIVER: tissue Liver; for A/G / ALP / ALT / AST / BUN / CRE / Ca / Cl / DBIL / GLC / IP / K / LDH / Na / PL / RALB / TBIL / TC / TG / TP / gamma-GTP: tissue Plasma
[1] = 0 mg/kg, 72 h, dose level Control, time 3 day
[2] = 0 mg/kg, […], dose level Control, time 7 day
[3] = 0 mg/kg, […], dose level Control, time 14 day
[4] = 0 mg/kg, […], dose level Control, time 28 day
[5] = 1 mg/kg, 72 h, dose level Middle, time 3 day

## CN1C(C(=O)Nc2ccccn2)=C(O)c2sc(Cl)cc2S1(=O)=O [LORNOXICAM]
[1]
  TERMINAL_BW: 242.5 g
  APTT: 20.7 s
  Bas: 0.4%
  Eos: 1%
  Fbg: 223.4 mg/dL
  Hb: 12.9 g/dL
  Ht: 38.6%
  Lym: 79%
  MCH: 21 pg
  MCHC: 33.5%
  MCV: 62.6 fL
  Mono: 2.6%
  Neu: 16.2%
  PT: 11.7 s
  Plat: 126.1 x10_4/uL
  RBC: 617 x10_4/ul
  Ret: 6.1%
  WBC: 110.2 x10_2/uL
  KIDNEY_L: 1 g
  KIDNEY_R: 1 g
  KIDNEY_TOTAL: 2.1 g
  LIVER: 10.9 g
  A/G: 1.7
  ALP: 907.8 IU/L
  ALT: 46.2 IU/L
  AST: 91.2 IU/L
  BUN: 14.4 mg/dL
  CRE: 0.4 mg/dL
  Ca: 10.6 mg/dL
  Cl: 104.2 meq/L
  DBIL: 0.094 mg/dL
  GLC: 222.6 mg/dL
  IP: 6.8 mg/dL
  K: 4.1 meq/L
  LDH: 253.8 IU/L
  Na: 141.6 meq/L
  PL: 145.8 mg/dL
  RALB: 3.5 g/dL
  TBIL: 0.1 mg/dL
  TC: 74.2 mg/dL
  TG: 97.6 mg/dL
  TP: 5.6 g/dL
  gamma-GTP: 1.2 IU/L
[2]
  TERMINAL_BW: 279.8 g
  APTT: 20.1 s
  Bas: 0.6%
  Eos: 0.8%
  Fbg: 230.2 mg/dL
  Hb: 13.8 g/dL
  Ht: 40.8%
  Lym: 82%
  MCH: 20.7 pg
  MCHC: 33.7%
  MCV: 61.4 fL
  Mono: 2.2%
  Neu: 13.8%
  PT: 11.4 s
  Plat: 132.2 x10_4/uL
  RBC: 664.6 x10_4/ul
  Ret: 4.8%
  WBC: 106.9 x10_2/uL
  KIDNEY_L: 1.2 g
  KIDNEY_R: 1.2 g
  KIDNEY_TOTAL: 2.4 g
  LIVER: 13 g
  A/G: 1.7
  ALP: 1004.8 IU/L
  ALT: 33.2 IU/L
  AST: 68.4 IU/L
  BUN: 14 mg/dL
  CRE: 0.4 mg/dL
  Ca: 10.8 mg/dL
  Cl: 102.8 meq/L
  DBIL: 0.1 mg/dL
  GLC: 206 mg/dL
  IP: 6.7 mg/dL
  K: 4 meq/L
  LDH: 206 IU/L
  Na: 140.4 meq/L
  PL: 150 mg/dL
  RALB: 3.6 g/dL
  TBIL: 0.2 mg/dL
  TC: 70.8 mg/dL
  TG: 132.8 mg/dL
  TP: 5.7 g/dL
  gamma-GTP: 1.2 IU/L
[3]
  TERMINAL_BW: 335.2 g
  APTT: 21.1 s
  Bas: 0.6%
  Eos: 1%
  Fbg: 221.2 mg/dL
  Hb: 14 g/dL
  Ht: 41%
  Lym: 82%
  MCH: 20.3 pg
  MCHC: 34%
  MCV: 59.6 fL
  Mono: 2.4%
  Neu: 14.2%
  PT: 11.5 s
  Plat: 121.8 x10_4/uL
  RBC: 687.4 x10_4/ul
  Ret: 3.7%
  WBC: 100 x10_2/uL
  KIDNEY_L: 1.3 g
  KIDNEY_R: 1.3 g
  KIDNEY_TOTAL: 2.6 g
  LIVER: 14.5 g
  A/G: 1.5
  ALP: 781.8 IU/L
  ALT: 35.6 IU/L
  AST: 66.6 IU/L
  BUN: 15.4 mg/dL
  CRE: 0.4 mg/dL
  Ca: 10.7 mg/dL
  Cl: 104.4 meq/L
  DBIL: 0.096 mg/dL
  GLC: 195 mg/dL
  IP: 6.9 mg/dL
  K: 4 meq/L
  LDH: 196.4 IU/L
  Na: 141.2 meq/L
  PL: 148.6 mg/dL
  RALB: 3.5 g/dL
  TBIL: 0.2 mg/dL
  TC: 72.8 mg/dL
  TG: 118.4 mg/dL
  TP: 5.8 g/dL
  gamma-GTP: 0.8 IU/L
[4]
  TERMINAL_BW: 380.8 g
  APTT: 21.4 s
  Bas: 0.6%
  Eos: 1.2%
  Fbg: 223.4 mg/dL
  Hb: 15.8 g/dL
  Ht: 45.2%
  Lym: 81.6%
  MCH: 20.1 pg
  MCHC: 35%
  MCV: 57.6 fL
  Mono: 1.8%
  Neu: 14.2%
  PT: 11.7 s
  Plat: 108.5 x10_4/uL
  RBC: 784.8 x10_4/ul
  Ret: 2%
  WBC: 101.8 x10_2/uL
  KIDNEY_L: 1.4 g
  KIDNEY_R: 1.3 g
  KIDNEY_TOTAL: 2.7 g
  LIVER: 14.4 g
  A/G: 1.4
  ALP: 637.4 IU/L
  ALT: 33.6 IU/L
  AST: 67.4 IU/L
  BUN: 15.8 mg/dL
  CRE: 0.5 mg/dL
  Ca: 10.1 mg/dL
  Cl: 103.8 meq/L
  DBIL: 0.1 mg/dL
  GLC: 198.2 mg/dL
  IP: 6.1 mg/dL
  K: 4 meq/L
  LDH: 173.2 IU/L
  Na: 141.6 meq/L
  PL: 142.8 mg/dL
  RALB: 3.6 g/dL
  TBIL: 0.2 mg/dL
  TC: 67.6 mg/dL
  TG: 148.2 mg/dL
  TP: 6.1 g/dL
  gamma-GTP: 1.2 IU/L
[5]
  TERMINAL_BW: 239.1 g
  APTT: 18.8 s
  Bas: 0.8%
  Eos: 0.8%
  Fbg: 276 mg/dL
  Hb: 11.8 g/dL
  Ht: 35.5%
  Lym: 69.8%
  MCH: 21 pg
  MCHC: 33.2%
  MCV: 63.4 fL
  Mono: 3.8%
  Neu: 24.4%
  PT: 11.3 s
  Plat: 122.1 x10_4/uL
  RBC: 561.4 x10_4/ul
  Ret: 6.3%
  WBC: 144.7 x10_2/uL
  KIDNEY_L: 1.1 g
  KIDNEY_R: 1.1 g
  KIDNEY_TOTAL: 2.2 g
  LIVER: 11.7 g
  A/G: 1.4
  ALP: 872.4 IU/L
  ALT: 37.2 IU/L
  AST: 65 IU/L
  BUN: 12 mg/dL
  CRE: 0.4 mg/dL
  Ca: 10.4 mg/dL
  Cl: 104.4 meq/L
  DBIL: 0.098 mg/dL
  GLC: 220.2 mg/dL
  IP: 7.4 mg/dL
  K: 4.5 meq/L
  LDH: 198.6 IU/L
  Na: 140.8 meq/L
  PL: 150 mg/dL
  RALB: 3 g/dL
  TBIL: 0.2 mg/dL
  TC: 74 mg/dL
  TG: 154 mg/dL
  TP: 5.2 g/dL
  gamma-GTP: 1.6 IU/L
1 mg/kg, […], dose level Middle, time 7 day
  TERMINAL_BW: 275.8 g
